Measurements from ChEMBL document CHEMBL3997775, “Challenges and Opportunities in the Development of Serine Synthetic Pathway Inhibitors for Cancer Therapy” (J Med Chem, 2017).
In brackets after ≈: the same amount, converted by molar mass.

Assays:
[1] = target: T1, D-3-phosphoglycerate dehydrogenase (Homo sapiens, UniProt O43175)
T1 sequence (O43175 whole entry): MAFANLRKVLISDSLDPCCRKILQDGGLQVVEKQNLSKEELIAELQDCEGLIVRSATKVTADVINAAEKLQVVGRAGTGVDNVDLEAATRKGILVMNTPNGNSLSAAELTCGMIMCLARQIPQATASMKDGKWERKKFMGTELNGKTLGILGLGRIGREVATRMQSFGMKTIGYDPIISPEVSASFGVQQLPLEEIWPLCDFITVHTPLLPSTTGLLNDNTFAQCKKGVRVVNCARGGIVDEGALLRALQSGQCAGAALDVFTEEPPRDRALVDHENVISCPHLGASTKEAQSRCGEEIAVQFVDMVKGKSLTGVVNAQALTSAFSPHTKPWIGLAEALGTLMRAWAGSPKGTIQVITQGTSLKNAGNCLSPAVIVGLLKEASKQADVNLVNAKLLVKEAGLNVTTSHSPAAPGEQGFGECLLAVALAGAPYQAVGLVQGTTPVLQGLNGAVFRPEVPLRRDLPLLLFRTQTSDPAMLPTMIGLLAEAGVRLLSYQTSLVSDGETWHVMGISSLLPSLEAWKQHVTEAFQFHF
Description: Inhibition of human liver N-terminal His6-tagged PHGDH expressed in Escherichia coli Rosetta (DE3)pLysS using 3 -phosphoglycerate as substarte measured at 20 mins by resazurin based diaphorase coupled assay

[2] = target: T1, D-3-phosphoglycerate dehydrogenase; assay: Inhibition of full length PHGDH (unknown origin) using 3-phosphoglycerate as substrate incubated for 60 mins in presence of PSAT1, PSPH by resazurin based diaphorase coupled assay
[3] = target: T2, D-3-phosphoglycerate dehydrogenase (Homo sapiens) (UniProt O43175); assay: Binding affinity to human N- terminal His6-tagged PHGDH (1 to 533 residues) expressed in Escherichia coli Rosetta (DE3) assessed as change in melting temperature by SYPRO orange dye based DSF assay
T2 sequence (whole entry): T1 sequence (O43175 whole entry)

[4] = Solubility of the compound; format: physicochemical
[5] = Lipophilicity, logD of the compound; format: physicochemical; settings: octanol/water

Row | IC50 [2] | Structure (SMILES) | other results
1 |  | Cc1cc(C)nc(NC(=S)N2CCN(c3cccc(C(F)(F)F)c3)CC2)c1 | IC50 [1]: 6.5 µM
2 | 50 to 100 µM | O=C(Nc1ccc(S(=O)(=O)Nc2ccccn2)cc1)c1cc(-c2ccccc2)n[nH]1 | 
3 | > 100 µM | Nc1ncccc1-c1cc(C(=O)Nc2ccc(S(=O)(=O)Nc3ncccn3)cc2)[nH]n1 | 
4 | > 100 µM | NS(=O)(=O)c1ccc(NC(=O)c2cc(-c3ccccc3O)[nH]n2)cc1 | 
5 | > 100 µM | O=C(c1cc(-c2ccccc2)n[nH]1)N1CCC2C=C(S(=O)(=O)Nc3ncccn3)C=CC21 (stereo not drawn) | 
6 |  | NC(=O)c1ccc(F)c(Cl)c1 | ΔTm [3]: 2.3 °C
7 | > 100 µM | CN(c1ncccn1)S(=O)(=O)c1ccc(NC(=O)c2cc(-c3ccccc3O)n[nH]2)cc1 | 
8 | > 100 µM | O=C(Nc1ccc(S(=O)(=O)Nc2ncccn2)cc1)c1cc(-c2ccccc2)no1 | 
9 | < 50 µM | Cc1ccnc(NS(=O)(=O)c2ccc(NC(=O)c3cc(-c4ccccc4O)n[nH]3)cc2)n1 | 
10 |  | O=C(COc1cc2[nH]c(C(=O)N[C@H](CO)c3ccc(C(=O)O)cc3)cc2cc1Cl)NCCO | solubility [4]: 973 µM (≈ 463 µg/mL); logD [5]: < -1
11 | > 100 µM | O=C(Nc1ccc(S(=O)(=O)NCc2ccco2)cc1)c1cc(-c2ccccc2O)n[nH]1 | 
12 |  | Cn1nc(-c2ccccc2)cc1N | ΔTm [3]: 2.2 °C
13 |  | O=C1COc2cc(O)ccc21 | ΔTm [3]: 1.7 °C
14 | > 100 µM | O=C(Nc1ccc(S(=O)(=O)Nc2ncccn2)cc1)c1cc(-c2ccccc2C(=O)O)n[nH]1 | 
15 | > 100 µM | O=C(Nc1ccc(S(=O)(=O)Nc2ncccn2)cc1)c1cc(-c2ccccc2)on1 | 
16 | > 100 µM | Cc1c(-c2ccccc2)n[nH]c1C(=O)Nc1ccc(S(=O)(=O)Nc2ncccn2)cc1 | 

Row | IC50 [2] | Structure (SMILES) | other results
17 | < 50 µM | COc1ccccc1-c1cc(C(=O)Nc2ccc(S(=O)(=O)Nc3ncccn3)cc2)[nH]n1 | 
18 | < 50 µM | Cc1cc(C)nc(NS(=O)(=O)c2ccc(NC(=O)c3cc(-c4ccccc4)n[nH]3)cc2)n1 | 
19 | > 100 µM | O=C(Nc1ccc(S(=O)(=O)Nc2ncccn2)cc1)c1cc(-c2ccccc2)nn1-c1ccccc1 | 
20 | > 100 µM | CN(c1ncccn1)S(=O)(=O)c1ccc(NC(=O)c2cc(-c3ccccc3)n[nH]2)cc1 | 
21 | < 50 µM | O=C(Nc1ccc(S(=O)(=O)Nc2ncccn2)cc1)c1cc(-c2ccccc2O)n[nH]1 | 
22 |  | COc1ccc(NC(C)=O)cc1Cl | ΔTm [3]: 1.3 °C
23 | < 50 µM | O=C(Nc1ccc(S(=O)(=O)Nc2ncccn2)cc1)c1cc(-c2ccccc2F)n[nH]1 | 
24 |  | Nc1cccc(-c2cnco2)c1 | ΔTm [3]: 1.4 °C
25 | > 100 µM | O=C(Nc1ccc(S(=O)(=O)Nc2ccccn2)cc1)c1cc(-c2ccccc2O)n[nH]1 | 
26 |  | Cc1cccc(NC(=S)N2CCN(c3cccc(C(F)(F)F)c3)CC2)c1 | IC50 [1]: > 57 µM
27 | < 50 µM | Cn1nc(-c2ccccc2)cc1C(=O)Nc1ccc(S(=O)(=O)Nc2ncccn2)cc1 | 
28 | > 100 µM | O=C(Nc1ccc(S(=O)(=O)N2CCCCC2)cc1)c1cc(-c2ccccc2O)n[nH]1 | 
29 |  | Oc1noc2ccccc12 | ΔTm [3]: 2.5 °C
30 |  | Cc1cccc2cc[nH]c12 | ΔTm [3]: 2.4 °C
31 | > 100 µM | O=C(Nc1ccc(S(=O)(=O)NCCCN2CCOCC2)cc1)c1cc(-c2ccccc2O)n[nH]1 | 
32 | < 50 µM | O=C(Nc1ccc(S(=O)(=O)Nc2ncccn2)cc1)c1cc(-c2ccccc2)n[nH]1 | 
